Here are results for 2 compounds from patent US20250213701A1, “MEDICAMENT FOR TREATING HUMAN TUMOR BASED ON ERF3A-TARGETING PROTEOLYSIS MECHANISM” (SUZHOU DEGEN BIO-MEDICAL CO., LTD., priority 2022, published 2025).

What all share (format): cell-based
Assay [1] has as its target T1, SRD5A3 (Homo sapiens, UniProt Q9H8P0).
T1 construct: The downregulation of SRD5A3 and GSPT1 (eRF3a) proteins in PC-3 and HepG2 cells by C59; endogenous in cells; host or cells: 22Rv1, PC-3, HepG2
T1 sequence (Q9H8P0 1-318): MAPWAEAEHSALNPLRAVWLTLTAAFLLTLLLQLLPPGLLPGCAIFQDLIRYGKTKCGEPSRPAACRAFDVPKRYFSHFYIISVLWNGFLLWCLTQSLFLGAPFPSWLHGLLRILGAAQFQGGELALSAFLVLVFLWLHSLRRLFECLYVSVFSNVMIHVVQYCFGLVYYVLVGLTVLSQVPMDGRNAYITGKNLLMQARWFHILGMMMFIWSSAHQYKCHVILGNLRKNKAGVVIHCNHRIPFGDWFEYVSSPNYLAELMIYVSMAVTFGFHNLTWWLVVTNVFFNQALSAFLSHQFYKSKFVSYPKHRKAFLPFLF
Briefly: Western blot assay in 22Rv1 cells: SRD5A3. As to conditions: different concentrations at 24 h, and 3 nM at different time points (FIGS. 7 and 8). From the text: Example 84: Western Blot Assay of Compound C59 in 22Rv1, PC-3, and HepG2 Cells
(1) Materials: 22Rv1, PC-3, and HepG2 cell, anti-SRD5A1 antibody (ab167606), anti-SRD5A2 antibody (ab124877), anti-SRD5A3 antibody (PA5-107029), anti-androgen receptor (AR) antibody (CST, No. 5153), anti-GSPT1 antibody (Abcam, ab234433), anti-GADPH antibody (CST, No. 5174), anti-c-Myc antibody (CST, No. 8583), anti-α-tublin antibody (CST, No. 2125), anti-rabbit IgG, HRP-linked antibody (CST, No. 7074), electrophoresis device and membrane transfer device (LIUYI, BEIJING; DYCZ-24DN)
Cell seeding: 22Rv1 (Cell Bank of the Chinese Academy of Sciences, TCHu100), PC-3 (Cell Bank of the Chinese Academy of Sciences, SCSP-532) and HepG2 cells (Cell Bank of the Chinese Academy of Sciences, TCHu72) were subcultured and trypsinized to prepare 6×10^5 cells/mL suspensions, seeded on 6-well plates (3 mL/well), and cultured overnight in a cell incubator at 5% CO2 and 37° C. […]
Protein quantification: The protein was quantified using a BCA protein quantification kit. […]
Western immunoblot assay (or Western blot, WB): SDS-PAGE gel at a proper concentration was prepared according to the molecular weight of the target protein: for example, the concentration of the separation gel was 8% and the concentration of the stacking gel was 5%. The loading volume was adjusted according to the protein quantification results. […]

The test system of assay [2] is C-33 A cells. In words: Anti-proliferative toxicity of C63 in tumor cell lines (CCK8): C-33 A. As to conditions: Homo sapiens, 72 h, 3 days, read-out: Inhibition rate. How it is done: (§1) Example 83: Detection of Anti-Proliferative Toxicity of C63 in Some Tumor Cell Lines
C-33 A cells (purchased from the Cell Bank of the Chinese Academy of Sciences, Cat. No. TCHu176) were subcultured in a culture medium (MEM medium+1% penicillin-streptomycin dual-antibiotic solution+10% fetal bovine serum) in an incubator at 5% carbon dioxide and 37° C.
C-33 A cells were seeded at 5000 cells/well (90 μL) on a 96-well plate and cultured for 24 h.
(§2) 10 mM compound stock solutions were prepared in DMSO.
(§3) The compound stock solution was diluted with DMSO to give DMSO solutions 1-9 at concentrations of 0 μM, 2500 μM, 500 μM, 100 μM, 20 μM, 4 μM, 0.8 μM, 0.16 μM, and 0.032 μM.
(§4) 2 μL of each of solutions 1-9 was added to 98 μL of the medium to give mixed solutions 11-19 of the compound and the medium.
(§5) 10 μL of each of solutions 11-19 was added to the above cell seed solution to give a total volume of 100 μL (90 μL+10 μL).
(§6) The concentrations of the compound in the wells were 0 μM, 5.0 μM, 1.0 μM, 0.2 μM, 0.04 μM, 0.008 μM, 0.0016 μM, 0.00032 μM, and 0.000064 μM. All concentrations were in triplicate.
(§7) After the above-treated cells were cultured for 3 days, 10 μL of the CCK8 solution (DOJINDO, Cat. No. PF725) was added to each well. The plate was incubated in an incubator at 37° C. for 1-4 h and then detected on a microplate reader for the reading at 450 nm.

In assay [3] the test system is HL-60 cells. Briefly: Anti-proliferative toxicity of C63 in tumor cell lines (CCK8): HL-60. As to conditions: Homo sapiens, 72 h, 3 days, read-out: Inhibition rate. How it is done:
as §1
HL-60 cells (purchased from the Cell Bank of the Chinese Academy of Sciences, Cat. No. TCHu23) were subcultured in a culture medium (IMDM medium+1% penicillin-streptomycin dual-antibiotic solution+20% fetal bovine serum) in an incubator at 5% carbon dioxide and 37° C.
HL-60 cells were seeded at 20000 cells/well (90 μL) on a 96-well plate and cultured for 24 h.
as §2, §3, §4, §5, §6, §7

Turning to `C[C@]12C=CC(=O)N[C@@H]1CC[C@@H]1[C@@H]2CC[C@]2(C)[C@@H](C(=O)Nc3cccc(N[C@@H]4CCC[C@@H](Nc5cccc6c5C(=O)N(C5CCC(=O)NC5=O)C6=O)C4)c3)CC[C@@H]12` (stereo partly drawn) [C59, N-(3-(N—(N-(4-(2-(3-(2,6-dioxopiperidine))-isoindole-1,3-dione))-1R,3R-cyclohexanediamine))phenyl)-3-oxo-4-aza-5α-androst-1-ene-17β-carboxamide], in assay [1], the “downregulation of SRD5A3 protein (Western blot)” value was “downregulation”.

Take `C[C@]12C=CC(=O)N[C@@H]1CC[C@@H]1[C@@H]2CC[C@]2(C)[C@@H](C(=O)Nc3cccc(N[C@@H]4CCC[C@@H](Nc5cccc6c5C(=O)N([C@H]5CCC(=O)NC5=O)C6=O)C4)c3)CC[C@@H]12` [C63, N-(3-(N—(N-(4-(2-(3S-(2,6-dioxopiperidine))-isoindole-1,3-dione))-1R,3R-cyclohexanediamine))phenyl)-3-oxo-4-aza-5α-androst-1-ene-17β-carboxamide]: the inhibition at 64 pM in assay [2] (0.000064 μM) was 21.5%; in assay [3] (0.000064 μM), 73.5%. Further, the inhibition at 0.00032 µM in assay [2] (0.000320 μM) was found to be 15.9%; in assay [3] (0.000320 μM) it was 80.2%. Further, the inhibition at 0.0016 µM in assay [2] (0.001600 μM) amounted to 25.4%; in assay [3] (0.001600 μM) it was 89.5%. The inhibition at 0.008 µM in assay [2] (0.008000 μM) is 35.5%; in assay [3] (0.008000 μM) it was 90.7%. Moreover, the results for the inhibition at 0.04 µM in assay [2] (0.040000 μM) and in assay [3] (0.040000 μM) were 48.3% and 92.4%, respectively. Further, the inhibition at 0.2 µM in assay [2] (0.200000 μM) stood at 56.7%; in assay [3] (0.200000 μM), 94.3%. For the same compound, the figures for the inhibition at 1 µM in assay [2] (1.000000 μM) and in assay [3] (1.000000 μM) were 63.9% and 91.6%, respectively. Moreover, the inhibition at 5 µM turned out to be 72.3% in assay [2] (5.000000 μM) and 87.5% in assay [3] (5.000000 μM).
